Data published in BindingDB's records for doi:10.7270/Q2KK9971 (Nmmlsc, 2009).

biological target: T1, GTPase KRas [1-37] (Homo sapiens, UniProt G3V5T7); assay: Ras wild-type GTP-binding inhibitors, SAR follow-up, biochemical, pyrazoline analogs, multiplex bead flow cytometry (AID 2047); conditions: not given
T1 construct: 1-37
T1 sequence (G3V5T7 whole entry): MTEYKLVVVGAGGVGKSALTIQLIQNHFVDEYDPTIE

EC50 [µM] | Compound
> 30 | CCc1ccc(C2=NN(c3ccc(S(N)(=O)=O)cc3)C(c3ccc(F)cc3)C2)cc1 (stereo not given)
> 30 | Cc1cccc(N2N=C(c3ccccc3)CC2c2ccccc2)c1 (stereo not given) [UNM-0000305835]
> 30 | COc1ccc(C2CC(c3cccc(F)c3)=NN2c2ccc(S(N)(=O)=O)cc2)cc1 (stereo not given) [4-[5-(3-fluorophenyl)-3-(4-methoxyphenyl)-3,4-dihydropyrazol-2-yl]benzenesulfonamide]
> 30 | Cc1cccc(C2CC(c3ccccc3)=NN2c2ccc(S(N)(=O)=O)cc2)c1 (stereo not given)
> 30 | COc1ccc(C2CC(c3ccccc3F)=NN2c2ccc(S(N)(=O)=O)cc2)cc1 (stereo not given) [UNM-0000306110]
> 30 | COc1ccc(C2CC(c3cccnc3)=NN2c2ccc(S(N)(=O)=O)cc2)cc1 (stereo not given)
> 30 | COc1ccc(C2CC(c3cccc(C)c3)=NN2c2ccc(S(N)(=O)=O)cc2)cc1 (stereo not given) [UNM-0000306153]
> 30 | COc1ccc(C2CC(c3ccccc3)=NN2c2cccc(S(N)(=O)=O)c2)cc1 (stereo not given) [3-[3-(4-methoxyphenyl)-5-phenyl-3,4-dihydropyrazol-2-yl]benzenesulfonamide]
> 30 | NS(=O)(=O)c1ccc(N2N=C(c3ccccc3)CC2c2cccc(Br)c2)cc1 (stereo not given) [UNM-0000306147]
> 30 | COc1ccc(C2CC(c3ccc(Br)cc3)=NN2c2ccccc2Cl)cc1 (stereo not given) [UNM-0000305832]
> 30 | O=[N+]([O-])c1cccc(C2C[C-](c3ccc(F)cc3)N=[N+]2c2ccccc2)c1 (stereo not given) [5-(4-fluorophenyl)-3-(3-nitrophenyl)-2-phenyl-3,4-dihydropyrazole]
> 30 | COc1ccc(C2CC(c3cccc(Cl)c3)=NN2c2ccc(S(N)(=O)=O)cc2)cc1 (stereo not given) [UNM-0000306134]
> 30 | O=[N+]([O-])c1ccc([N+]2=N[C-](c3ccccc3)CC2c2ccc(O)cc2)cc1 (stereo not given) [UNM-0000305838]
> 30 | COc1ccc(C2CC(c3ccc(Cl)cc3)=NN2c2ccc(S(N)(=O)=O)cc2)cc1 (stereo not given)
> 30 | Fc1ccccc1C1CC(c2ccc(Br)cc2)=NN1c1ccc(Br)cc1 (stereo not given) [2,5-bis(4-bromophenyl)-3-(2-fluorophenyl)-3,4-dihydropyrazole]
> 30 | O=[N+]([O-])c1cccc(C2C[C-](c3ccccc3)N=[N+]2c2ccccc2)c1 (stereo not given) [UNM-0000305857]
> 30 | O=[N+]([O-])c1ccc([N+]2=N[C-](c3ccccc3)CC2c2ccccc2)cc1 (stereo not given)
> 30 | NS(=O)(=O)c1ccc(N2N=C(c3ccccc3)CC2c2ccc(Br)cc2)cc1 (stereo not given) [UNM-0000306160]
> 30 | CC(=O)Oc1ccc(C2=NN(c3ccccc3)C(c3ccccc3)C2)cc1 (stereo not given)
> 30 | COc1ccc(C2CC(c3ccc(F)cc3)=NN2c2cc(Cl)ccc2Cl)cc1 (stereo not given) [2-(2,5-dichlorophenyl)-5-(4-fluorophenyl)-3-(4-methoxyphenyl)-3,4-dihydropyrazole]

EC50 [µM] | Compound
> 30 | COc1ccc(C2CC(c3ccccc3C)=NN2c2ccc(S(N)(=O)=O)cc2)cc1 (stereo not given) [UNM-0000306152]
> 30 | Cc1ccccc1C1CC(c2ccccc2)=NN1c1ccc(S(N)(=O)=O)cc1 (stereo not given) [UNM-0000306148]
> 30 | NS(=O)(=O)c1ccc(N2N=C(c3ccccc3)CC2c2ccccc2Cl)cc1 (stereo not given) [KUC103446N]
> 30 | O=C(O)c1ccc(N2N=C(c3ccccc3)CC2c2ccccc2)cc1 (stereo not given)
> 30 | NS(=O)(=O)c1ccc(N2N=C(c3ccccc3)CC2c2cccc(Cl)c2)cc1 (stereo not given) [UNM-0000306161]
> 30 | COc1ccc(C2CC(c3ccc(C)cc3)=NN2c2ccc(S(N)(=O)=O)cc2)cc1 (stereo not given)
> 30 | COc1ccc(C2CC(c3ccccc3)=NN2c2ccc(S(N)(=O)=O)cc2)cc1OC (stereo not given) [UNM-0000305823]
> 30 | COc1ccc(C2CC(c3cccc(Br)c3)=NN2c2ccc(S(N)(=O)=O)cc2)cc1 (stereo not given) [UNM-0000306113]
> 30 | COc1ccc(C2C[C-](c3ccccc3)N=[N+]2c2ccc([N+](=O)[O-])cc2)cc1 (stereo not given) [3-(4-methoxyphenyl)-2-(4-nitrophenyl)-5-phenyl-3,4-dihydropyrazole]
> 30 | O=S(=O)(c1ccc(N2N=C(c3ccccc3)CC2c2ccccc2)cc1)C(F)F (stereo not given)
> 30 | Brc1ccc(N2N=C(c3ccccc3)CC2c2ccccc2)cc1 (stereo not given)
> 30 | CN(C)c1ccc(C2CC(c3ccc(Br)cc3)=NN2c2ccccc2)cc1 (stereo not given) [UNM-0000305846]
> 30 | Clc1cccc(N2N=C(c3ccccc3)CC2c2ccccc2)c1 (stereo not given)
> 30 | COc1ccc(C2CC(c3ccccc3)=NN2c2ccc(Cl)c(C(=O)O)c2)cc1OC (stereo not given) [2-chloro-5-[3-(3,4-dimethoxyphenyl)-5-phenyl-3,4-dihydropyrazol-2-yl]benzoic acid]
> 30 | COc1ccc(C2CC(c3ccccc3)=NN2c2ccc(C(=O)O)cc2)cc1 (stereo not given) [UNM-0000306085]
> 30 | NS(=O)(=O)c1ccc(N2N=C(c3ccccc3)CC2c2ccccc2Br)cc1 (stereo not given) [4-[3-(2-bromophenyl)-5-phenyl-3,4-dihydropyrazol-2-yl]benzenesulfonamide]
> 30 | O=S(=O)(O)c1ccc(N2N=C(c3ccccc3)CC2c2ccccc2)cc1 (stereo not given) [UNM-0000305834]
> 30 | COc1ccccc1C1CC(c2ccccc2)=NN1c1ccc(S(N)(=O)=O)cc1 (stereo not given) [4-[3-(2-methoxyphenyl)-5-phenyl-3,4-dihydropyrazol-2-yl]benzenesulfonamide]
> 30 | Cc1onc(-c2ccccc2)c1-c1ccc(S(N)(=O)=O)cc1
> 30 | COc1ccc(C2CC(c3ccccc3)=NN2c2ccc(C(N)=O)cc2)cc1 (stereo not given) [UNM-0000305870]

same assay, conditions: inactive by the depositor's call

EC50 [µM] | Compound
0.049 | CN(C)c1ccc(C2CC(c3ccccc3)=NN2c2ccccc2)cc1 (stereo not given) [4-(2,5-diphenyl-3,4-dihydropyrazol-3-yl)-N,N-dimethylaniline]
1.03 | COc1ccc(C2CC(c3ccccc3)=NN2c2ccc(Cl)c(C(=O)O)c2)cc1 (stereo not given)
0.079 | COc1ccc(C2CC(c3ccc(Cl)cc3)=NN2c2ccccc2)cc1OC (stereo not given) [UNM-0000305858]
13.5 | COc1ccc(C2=NN(c3ccccc3F)C(c3ccc(F)cc3)C2)cc1 (stereo not given) [UNM-0000305860]
0.096 | NS(=O)(=O)c1ccc(N2N=C(c3ccc(Cl)cc3)CC2c2ccccc2)cc1 (stereo not given)
